In patent US20210338686A1, “COMBINATION CANCER THERAPY WITH PENTAAZA MACROCYCLIC RING COMPLEX AND PLATINUM-BASED ANTICANCER AGENT” (Galera Labs, LLC, priority 2018, published 2021):

Experiments:
inflammation = conditions: rat model; Salvemini et al. 1999; cited from earlier work
[1] = test system: collagen-induced arthritis; conditions: rat collagen-induced arthritis; Salvemini et al. 2001; cited from earlier work
[2] = test system: experimental model of colitis; conditions: rats; Cuzzocrea et al. 2001; cited from earlier work
[3] = test system: lethal total body irradiation; conditions: adult mice, Thompson et al. 2010; cited from earlier work
[4] = test system: acute, radiation-induced oral mucositis; conditions: hamster oral mucositis; Murphy et al. 2008; cited from earlier work
[5] = test system: athymic female Nu/Nu (nude) mice implanted with SQ20B human head and neck squamous cell carcinoma cells; assay: Cisplatin-induced hematotoxicity in nude mice bearing SQ20B tumors; format: in vivo; conditions: 10 mg/kg GC4419 every day added to cisplatin + IR
Experimental: 7 week old athymic female Nu/Nu (nude) mice were implanted in a hind leg with SQ20B human head and neck squamous cell carcinoma cells. […] Mice were assessed for blood counts by tail vein blood collection either 2 days or 2 weeks after the treatment period.

PARP in H1299CAT cells = assay: PARP activation in H1299CAT cells with doxycycline induction of CAT overexpression; format: cell-based, human; conditions: CAT induced with doxycycline, 24 hr
Source text: When treated with doxcycline, H1299CAT cells express greater levels of human catalase (CAT) than the “parent” cells, H1299 (wild type), eliminating all or part of the H2O2 generated from superoxide by GC4419 or other Mn pentaazamacrocyclic dismutase mimetcs.

[6] = test system: VEGFr inhibitor-induced pulmonary disease; conditions: rat model; Tuder et al. 2003; cited from earlier work
[7] = test system: H1299 human NSCLC cells, modified to inducibly overexpress catalase (CAT) (H1299CAT); assay: Survival of H1299CAT cells with GC4419, cisplatin and catalase overexpression; format: cell-based; conditions: 24 μM GC4419 added to cisplatin, 120 hrs, FIG. 2
Source text: CAT overexpression in this line (H1299CAT) was induced by administration of doxycycline, which turned on transcription of the inserted catalase genes.

[8] = test system: cisplatin-induced acute kidney injury (AKI) model, male C57BL/6J mice; assay: Cisplatin-induced acute kidney injury (AKI) model in mice; format: in vivo
Source text: 4 month old male C57BL/6J mice (young) were purchased from Jackson Laboratories and 18 month old mice (old) were obtained as collaboration with Dr. Amy Sindler (University of Iowa) from the National institute of Aging. All mice were maintained in accordance with ACURF approval #4121235 at the University of Iowa Animal Care facility. Mice were maintained on normal diets and water ad libitum through the course of the experiment.
Animals were weighed every other day following the start of treatment with GC4419.

[9] = test system: PARP (poly (ADP ribosyl) polymerase) in H460 NSCLC cells; assay: PARP activation in H460 cells (Western blot, 89 kd active / 116 kd inactive form); format: cell-based, human; conditions: 24 hr
Source text: PARP is a nuclear enzyme involved in DNA repair of single strand breaks and is activated following cell stress including chemotherapy and irradiation.

[10] = test system: H460 and H1299 (wild type) cells; assay: Hydrogen peroxide (P0-1 probe); format: cell-based, human; conditions: FIGS. 9A-9D
[11] = test system: H460 and H1299 (wild type) cells; assay: Mitochondrial superoxide (MitoSOX probe, flow cytometer); format: cell-based, human; conditions: FIGS. 8A-8D
[12] = test system: H460 and H1299 (wild type) cells; assay: Total reactive oxygen species (CellROX probe, flow cytometer); format: cell-based, human; conditions: FIGS. 7A-7D
Experimental: After the treatments and incubations CellROX fluorogenic probes for total ROS were added for 30 minutes continued incubation and the CellROX signal was measured using a flow cytometer.

[13] = test system: H460 human non-small cell lung carcinoma (NSCLC) cells; assay: Survival of H460 cells in culture with GC4419 and cisplatin; format: cell-based; conditions: 24 μM GC4419 added to cisplatin (indicated concentrations), 120 hrs, vs cisplatin alone; FIG. 1
Experimental: After 120 hrs the surviving fraction of cells was determined.

[14] = test system: oral mucositis in head-and-neck cancer patients; conditions: head-and-neck cancer patients undergoing chemoradiation therapy; Anderson 2015; cited from earlier work
[15] = test system: PARP in H1299 (wild type) NSCLC cells; assay: PARP activation in H1299 (wild type) cells (Western blot); format: cell-based, human; conditions: 24 hr
[16] = 10 mg/kg GC4419 daily from 4 days prior to 10 mg/kg cisplatin, 72 hours after cisplatin, FIG. 10A
[17] = 24 μM GC4419, both cancer cell lines
[18] = 1 μM cisplatin or cisplatin plus 6 Gy IR

[Cl-].[Cl-].[Mn+2].c1cc2nc(c1)CN[C@@H]1CCCC[C@H]1NCCN[C@@H]1CCCC[C@H]1NC2 [GC4403]
inflammation (inflammation): inhibit inflammation | joint disease [1]: prevent joint disease | injury to the colon [2]: very significantly reduce the injury to the colon | radiation damage [3]: attenuate the radiation damage | radiation damage [4]: attenuate the radiation damage

[Cl][Mn][Cl].c1cc2nc(c1)CN[C@H]1CCCC[C@@H]1NCCN[C@H]1CCCC[C@@H]1NC2 [GC4419]
leukocyte (WBC) and lymphocyte count ([5]; 2 days and 2 weeks after the end of treatment, FIG. 11B): stimulated leukocyte (WBC) and proportionally lymphocyte subset production | neutrophil percentage ([5]; FIG. 11C): maintained neutrophil percentage at apparently normal levels | eosinophil percentage ([5]; FIG. 11D): maintained eosinophil percentage at apparently normal levels | platelets ([5]; two days after the end of treatments, FIG. 11A): significantly restored platelet levels | PARP activation response to cisplatin (PARP in H1299CAT cells; 24 μM GC4419 + 1 μM cisplatin, p<0.01, FIG. 6B): reduced the PARP activation response | PARP activation response to IR+cisplatin (PARP in H1299CAT cells; 24 μM GC4419 + 6 Gy IR + 1 μM cisplatin, p<0.001, FIG. 6C): reduced the PARP activation response | PARP activation response to IR (PARP in H1299CAT cells; 24 μM GC4419 + 6 Gy IR, p<0.05, FIG. 6C): reduced the PARP activation response | VEGFr inhibitor-induced pulmonary disease [6]: attenuate VEGFr inhibitor-induced pulmonary disease | surviving fraction of cells ([7]; with CAT overexpression (doxycycline induced)): abrogated the GC4419 contribution to cisplatin response | surviving fraction of cells ([7]; without CAT overexpression (wt), vs cisplatin alone): decreased the surviving fraction | survival ([8]; 10 mg/kg GC4419 daily + 10 mg/kg cisplatin, old mice, FIG. 10D): prevented cisplatin mortality in the old mice | body weight ([8]; 10 mg/kg GC4419 daily + 10 mg/kg cisplatin, young and old mice, FIG. 10C): reduced the amount of weight loss in both sets of mice | kidney injury biomarkers KIM1 and NGAL ([8]; 10 mg/kg GC4419 daily + 10 mg/kg cisplatin, FIG. 10B): prevented that injury | creatinine level [8, 16]: completely prevented these increases | whole blood urea nitrogen (BUN) level [8, 16]: completely prevented these increases | PARP activity (ratio of 89 kd active form to 116 kd inactive form) ([9]; 24 μM GC4419 added to 1 μM cisplatin, vs cisplatin, FIG. 3): further and significantly (p<0.01) increased PARP activity | PARP activity (ratio of 89 kd active form to 116 kd inactive form) ([9]; 24 μM GC4419 added to 6 Gy IR + 1 μM cisplatin, FIG. 5): significantly increased (p<0.01) | PARP activity (ratio of 89 kd active form to 116 kd inactive form) ([9]; 24 μM GC4419 added to 6 Gy IR, vs radiation alone, FIG. 5): significantly increased PARP activity over that seen with radiation alone | basal levels of H2O2 [10, 17]: significantly increases both the basal levels of H2O2 | H2O2 ([10]; 24 μM GC4419 added to cisplatin or cisplatin plus IR, both cancer cell lines): significantly further increases the increase in H2O2 | basal levels of mitochondrial superoxide (MitoSOX signal) [11, 17]: significantly reduced the basal levels of mitochondrial superoxide | mitochondrial superoxide (MitoSOX signal) ([11]; 24 μM GC4419 added to cisplatin or cisplatin plus IR): significantly reduced the increase in mitochondrial superoxide | total ROS (CellROX signal) ([12]; 24 μM GC4419 added to cisplatin therapy): synergistic effect on total ROS | total ROS (CellROX signal) ([12]; 24 μM GC4419 used alone, either cancer cell line): little effect on total ROS | surviving fraction of cells [13]: decreased the surviving fraction of H460 cells | oral mucositis [14]: reduce oral mucositis | PARP activity (ratio of 89 kd active form to 116 kd inactive form) ([15]; 24 μM GC4419 added to 10 μM cisplatin, vs cisplatin, FIG. 4): further and significantly p<0.01) increased PARP activity | PARP activity (ratio of 89 kd active form to 116 kd inactive form) ([15]; 24 μM GC4419 added to 6 Gy IR + 1 μM cisplatin, FIG. 6A): significantly increased (p<0.0.05) | PARP activity (ratio of 89 kd active form to 116 kd inactive form) ([15]; 24 μM GC4419 added to 6 Gy IR, vs radiation alone, FIG. 6A): significantly increased PARP activity over that seen with radiation alone

N.N.[Cl][Pt][Cl] [cisplatin, reference compound]
H2O2 [10, 18]: increase in H2O2 | mitochondrial superoxide (MitoSOX signal) [11, 18]: increase in mitochondrial superoxide | total ROS (CellROX signal) [12, 18]: increased total ROS
